The values below come from ChEMBL document CHEMBL1143586, “Dimeric zanamivir conjugates with various linking groups are potent, long-lasting inhibitors of influenza neuraminidase including H5N1 avian influenza” (J Med Chem, 2005).

A short description of data set [1]: Plasma half life in rat after 2 mg/kg intravenous dosage. Format: ADME, organism-based. The arrangement: dose 2 mg/kg, route intravenous.
Data set [2] concerns Influenza A virus.
In data set [3] the test system is Influenza A virus. The source holds these as a separate data set.
Data set [4] has as its system Mus musculus. The data set can be described thus: Single intranasal effective dose required to inhibit viral replication in the 7-Day mouse efficacy model (Dosed with influenza A/Singapore /1/57). Particulars: inhaled or nasal, 168 h. It is filed as functional.
The test system of data set [5] is Influenza A virus. This is another data set of the same source.
The subject of data set [6] is Influenza B virus.
The test system of data set [7] is Influenza A virus. This is another data set of the same source.
For data set [8], the system named is Influenza A virus. This is another data set of the same source.
For data set [9], the system named is Influenza A virus. This is another data set of the same source.
In data set [10] the test system is Influenza B virus. This is another data set of the same source.
A short description of data set [11]: in vivo. As to conditions: rat.
The nature of data set [12]: Plasma half life in rat after 10 mg/kg oral dosage. It is filed as ADME, organism-based. The arrangement: dose 10 mg/kg, route oral.
Data set [13] in a line: in vivo. As to conditions: rat, po.
A short description of data set [14]: in vivo. As to conditions: rat, plasma.
A short description of data set [15]: in vivo. As to conditions: rat, po. The source holds these as a separate data set.
The nature of data set [16]: in vivo. Particulars: rat, inhaled or intranasal.
Data set [17] concerns Influenza B virus. This is another data set of the same source.
The nature of data set [18]: Plasma half life in rat after 0.4 mg/kg intratracheal dosage. It is filed as ADME, organism-based. Particulars: inhaled or intranasal. Also on record: dose 0.4 mg/kg, route endotracheal.
Data set [19] has as its target Neuraminidase (Influenza A virus (A/Puerto Rico/8/1934(H1N1)), UniProt P03468).
The target is the same in data set [20]. The source holds these as a separate data set.
The subject of data set [21] is Mus musculus. As to the kind of experiment: Single intranasal effective dose required to inhibit viral replication in the 7-Day mouse efficacy model (Dosed with influenza A/Victoria/3/75). It is filed as functional. Particulars: inhaled or nasal, 168 h.
Data set [22] has as its target Neuraminidase (Influenza A virus (A/Puerto Rico/8/1934(H1N1)), UniProt P03468). The source holds these as a separate data set.

Converted amounts (≈) assume the structure as drawn. “And” between values parts separate entries of the source, which are not always exact repeats. Identical values can stand only once.

Chain of Neuraminidase (Influenza A virus (A/Puerto Rico/8/1934(H1N1)), UniProt P03468) (P03468 whole entry): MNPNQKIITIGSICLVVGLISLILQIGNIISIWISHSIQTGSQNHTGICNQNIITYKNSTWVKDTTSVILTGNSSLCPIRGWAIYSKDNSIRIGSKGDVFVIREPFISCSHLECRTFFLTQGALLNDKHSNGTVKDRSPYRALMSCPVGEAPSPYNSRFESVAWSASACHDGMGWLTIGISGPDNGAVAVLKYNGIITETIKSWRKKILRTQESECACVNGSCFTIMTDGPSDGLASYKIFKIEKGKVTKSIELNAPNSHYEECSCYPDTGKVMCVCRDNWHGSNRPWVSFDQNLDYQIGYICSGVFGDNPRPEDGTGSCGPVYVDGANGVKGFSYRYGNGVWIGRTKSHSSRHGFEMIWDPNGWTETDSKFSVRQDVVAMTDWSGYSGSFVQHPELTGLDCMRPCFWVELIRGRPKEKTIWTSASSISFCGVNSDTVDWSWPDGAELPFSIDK

As to `[H]/N=C(\N)N[C@H]1C=C(C(=O)O)O[C@@H]([C@H](O)[C@H](O)CO)C1NC(C)=O` (some centres not stated), the half-life (commonly the time in which the quantity being followed falls by half) in [1] is 0.4 h; in data set [12] it was 0.25 h. Besides, the EC50 – broadly, the concentration needed to bring the measured effect to its halfway point – in the data set on Influenza A virus [2] was 56 ng/mL and > 100 ng/mL; in the data set on Influenza A virus [3] it was 5.5 ng/mL (≈ 16.6 nM); with Influenza A virus [5] it was 0.27 ng/mL (≈ 0.812 nM); in the data set on Influenza B virus [6], 11.5 ng/mL (≈ 34.6 nM); in the data set on Influenza A virus [7], 2.4 ng/mL (≈ 7.22 nM); with Influenza A virus [8], 35 ng/mL (≈ 105 nM). Moreover, the values for the EC50 with Influenza A virus [9] and in the data set with Influenza B virus [10] were 2.7 ng/mL (≈ 8.12 nM) and 21 ng/mL (≈ 63.2 nM), respectively. The ED90 in the data set with Mus musculus [4] came to 2.92 mg/kg. Besides, the Vd (commonly a proportionality between amount in the body and measured concentration, not a real space) in the data set “in vivo [11]” was determined as 0.03 L/kg. The bioavailability (as a rule, dose-corrected exposure relative to a reference, in per cent) in the data set “in vivo [13]” came out at 2.7%. For the same molecule, the clearance (in general, the rate of elimination divided by the concentration) in “in vivo [14]” is 1.42 mL/min/kg.
In the case of `COC(=O)C1=C[C@H](N=C(N)N)C(NC(C)=O)[C@H]([C@H](OC(=O)NCCCNC(=O)c2ccc(C(=O)NCCCNC(=O)O[C@H](C(O)CO)[C@@H]3OC(C(=O)O)=C[C@H](N=C(N)N)C3NC(C)=O)cc2)C(O)CO)O1` (some centres not stated), the half-life in [1] was 0.4 h; in data set [18], 2 h. In addition, the EC50 with Influenza A virus [2] came out at 0.02 ng/mL (≈ 0.0198 nM); in the data set with Influenza A virus [5] it was 0.06 ng/mL (≈ 0.0595 nM); in the data set on Influenza A virus [7], 0.05 ng/mL (≈ 0.0496 nM); in the data set with Influenza A virus [8] it was 0.009 ng/mL (≈ 0.00892 nM); in the data set on Influenza A virus [9] it was 0.03 ng/mL (≈ 0.0297 nM); in the data set with Influenza B virus [10], 0.32 ng/mL (≈ 0.317 nM). In addition, the EC50 in the data set on Influenza B virus [17] worked out at 0.022 ng/mL (≈ 0.0218 nM). Also, the bioavailability was below 1% in “in vivo [15]” and 67% in “in vivo [16]”. In the data set “in vivo [11]”, this molecule registered a Vd of 0.2 L/kg. For the same molecule, the clearance in the data set “in vivo [14]” is 0.7 mL/min/kg.
For `CC(=O)NC1[C@@H](N=C(N)N)C=C(C(=O)O)O[C@H]1[C@H](OC(=O)NCCCCCCCCCCCCNC(=O)O[C@H](C(O)CO)[C@@H]1OC(C(=O)O)=C[C@H](NC(=N)N)C1NC(C)=O)C(O)CO` (some centres not stated), the figures for the half-life in data set [1], in data set [12] and in data set [18] were 2.2 h, 4.9 h and 5 h, respectively. The IC50 (commonly the concentration that inhibits the measured activity by half) in [19] was 21.7 nM; in data set [20] it was 61 nM; in [22], 7.86 nM. For the same molecule, the EC50 was 0.05 ng/mL and 0.1 ng/mL in the data set with Influenza B virus [6]; 0.032 ng/mL (≈ 0.0349 nM) with Influenza A virus [7]; 0.032 ng/mL (≈ 0.0349 nM) with Influenza A virus [9]; 0.37 ng/mL (≈ 0.403 nM) in the data set on Influenza B virus [10]. For the same molecule, the figures for the bioavailability in “in vivo [16]” and in “in vivo [13]” were 67% and below 1%, respectively. In the data set “in vivo [11]”, this molecule showed a Vd of 0.2 L/kg. In the data set on Mus musculus [21], this molecule had an ED90 of 0.03 mg/kg. In “in vivo [14]”, this molecule registered a clearance of 0.7 mL/min/kg.
